What was measured:
Mus musculus [1] = assay: Neurotoxicity in Swiss albino mouse assessed as impair in motor coordination at 300 mg/kg, ip after 4 hrs by rotarod test; format: toxicity, organism-based; design: dose 300 mg/kg, route intraperitoneal; details: in vivo
[2] = Neurotoxicity in ip dosed Swiss albino mouse assessed as impair in motor coordination from 0.5 to 4 hrs post administration by rotarod test; format: toxicity, organism-based; details: in vivo
Mus musculus [3] = assay: Anticonvulsant activity in Swiss albino mouse assessed as protection against maximal electroshock-induced seizures measuring inhibition of extension phase at 25 mg/kg, ip after 2 hrs; format: functional; details: route intraperitoneal
Mus musculus [4] = assay: Anticonvulsant activity in ip dosed Swiss albino mouse assessed as protection against maximal electroshock-induced seizures after 2 hrs; format: functional
Mus musculus [5] = species: Mus musculus; assay: Protection index, ratio of TD50 for Swiss albino mouse by rotarod test to ED50 for Swiss albino mouse by maximal electroshock test; format: functional
Mus musculus [6] = assay: Neurotoxicity in Swiss albino mouse assessed as impair in motor coordination at 300 mg/kg, ip after 0.5 hrs by rotarod test; format: toxicity, organism-based; design: dose 300 mg/kg, route intraperitoneal; details: in vivo
Mus musculus [7] = assay: Neurotoxicity in Swiss albino mouse assessed as impair in motor coordination at 100 mg/kg, ip after 0.5 hrs by rotarod test; format: toxicity, organism-based; design: dose 100 mg/kg, route intraperitoneal; details: in vivo

Row | SMILES | Activity (Mus musculus [1]) | TD50 [2] [mg/kg] | inhibition in vivo at 25 mg/kg (Mus musculus [3]) [%] | ED50 (Mus musculus [4]) [mg/kg] | Ratio TD50/ED50 (Mus musculus [5]) | Activity (Mus musculus [6]) | Activity (Mus musculus [7])
1 | O=C1C(c2ccccc2Cl)CC(c2ccccc2Cl)C(=O)N1Cc1ccccc1 (configuration not stated) | Non-toxic | 106 | 58.2 | 38.3 | 2.7 | Non-toxic | –
2 | O=C1NC(=O)C(c2ccccc2Cl)CC1c1ccccc1Cl (configuration not stated) | Non-toxic | 175 | 58.3 | 25.5 | 7 | Non-toxic | –
3 | O=C1C(c2ccccc2)CC(c2ccccc2)C(=O)N1c1ccccc1 (configuration not stated) | Non-toxic | 165 | 38.3 | 43.7 | 3.7 | Toxic | –
4 | Cc1ccccc1N1C(=O)C(c2ccccc2)CC(c2ccccc2)C1=O (configuration not stated) | Non-toxic | 104 | 66.1 | 21.5 | 4.9 | Toxic | –
5 | O=C1C(c2ccccc2)CC(c2ccccc2)C(=O)N1c1cccc(Cl)c1 (configuration not stated) | Non-toxic | – | 32.2 | > 100 | – | Toxic | –
6 | Cc1ccc(N2C(=O)C(c3ccccc3Cl)CC(c3ccccc3Cl)C2=O)cc1 (configuration not stated) | Non-toxic | 86.5 | 58.2 | 41.2 | 2.1 | Toxic | –
7 | NN1C(=O)C(c2ccccc2Cl)CC(c2ccccc2Cl)C1=O (configuration not stated) | Toxic | 117 | 73.3 | 11.2 | 10.6 | Toxic | –
8 | NC(=O)N1c2ccccc2C=Cc2ccccc21 [CARBAMAZEPINE] | – | – | – | 11.8 | 6.4 | – | –
9 | O=C1C(c2ccccc2)CC(c2ccccc2)C(=O)N1Cc1ccccc1 (configuration not stated) | Non-toxic | 218 | 64.5 | 14 | 15.6 | Non-toxic | –
10 | CN1C(=O)C(c2ccccc2Cl)CC(c2ccccc2Cl)C1=O (configuration not stated) | Toxic | 220 | 61.7 | 23.7 | 9.2 | – | Toxic
11 | Cc1ccc(N2C(=O)C(c3ccccc3)CC(c3ccccc3)C2=O)cc1 (configuration not stated) | Toxic | 190 | 43.3 | 82 | 2.3 | – | Toxic
12 | O=C1NC(=O)C(c2ccccc2)CC1c1ccccc1 (configuration not stated) | Non-toxic | 193 | 70.2 | 11 | 17.5 | Non-toxic | –
13 | NN1C(=O)C(c2ccccc2)CC(c2ccccc2)C1=O (configuration not stated) | Non-toxic | 123 | 76 | 10 | 12.3 | Non-toxic | –
14 | CN1C(=O)C(c2ccccc2)CC(c2ccccc2)C1=O (configuration not stated) | Toxic | 323 | 69.1 | 14.8 | 21.8 | – | Toxic
15 | Cc1ccccc1N1C(=O)C(c2ccccc2Cl)CC(c2ccccc2Cl)C1=O (configuration not stated) | Non-toxic | 227 | 60.6 | 27.4 | 8.3 | Non-toxic | –
16 | O=C1C(c2ccccc2Cl)CC(c2ccccc2Cl)C(=O)N1c1ccccc1 (configuration not stated) | Non-toxic | 198 | 40.6 | 61.4 | 3.2 | Non-toxic | –
17 | O=C1N=C(O)NC1(c1ccccc1)c1ccccc1 [PHENYTOIN SODIUM] | – | – | 80.7 | – | – | – | –
18 | O=C1C(c2ccccc2Cl)CC(c2ccccc2Cl)C(=O)N1c1cccc(Cl)c1 (configuration not stated) | Non-toxic | 108 | 43.7 | 60.2 | 1.8 | Non-toxic | –
